Data published in patent US6384051B1, “Method of treating or inhibiting colonic polyps” (American Cyanamid Company, priority 2000, dated 2002).

System: Min mouse (C57BL/6J-Min/+)
Assay: in vivo test procedure emulating FAP: Min mouse (C57BL/6J-Min/+), compound blended with AIN-93G chow for 60 days, intestinal polyps counted on day 61
Details: not given
Experimental: The polyps that develop in Min mice express EGFR and have activated COX-2.
On day 61, the animals were euthanized with CO2 inhalation, and the entire intestinal tract from stomach to anus was removed. The intestinal tract was injected with Bouins fixative, and allowed to fix for several days. The intestinal tracts were then opened and the number of polyps counted.

Compound	reducing polyp numbers in mice
CCOc1cc2ncc(C#N)c(Nc3ccc(F)c(Cl)c3)c2cc1NC(=O)C=CCN(C)C [Example 399, 4-Dimethylamino-but-2-enoic acid [4-(3-chloro-4-fluoro-phenylamino)-3-cyano-7-ethoxy-quinolin-6-yl]-amide]	effective in significantly reducing polyp numbers

System: not given
Assay: not given
Details: not given

melting point	Compound
250 to 255 °C	COc1cc2ncc(C#N)c(Nc3cccc(CO)c3)c2cc1OC [Example 48, 4-[(3-(hydroxymethyl)phenyl)amino]-6,7-dimethoxy-3-quinolinecarbonitrile]
133 to 135 °C	CCN(CC)CC#CC(=O)Nc1ccc2ncc(C#N)c(Nc3cccc(Br)c3)c2c1 [Example 187, N-[4-[(3-Bromophenyl)amino]-3-cyano-6-quinolinyl]-4-diethylamino-2-butynamide]
211 to 213 °C	COc1cc2c(Nc3cccc(Br)c3)c(C#N)cnc2c(OC)c1OC [Example 241, 4-(3-Bromo-phenylamino)-6,7,8-trimethoxy-quinoline-3-carbonitrile]
159 to 162 °C	COc1cc2ncc(C#N)c(Nc3ccccc3CCO)c2cc1OC [Example 301, 4-[2-(2-Hydroxy-ethyl)-phenylamino]-6,7-dimethoxy-quinoline-3-carbonitrile]
222 to 225 °C	COc1cccc2c(Nc3cccc(N(C)C)c3)c(C#N)cnc12 [Example 277, 4-(3-Dimethylamino-phenylamino)-8-methoxy-quinoline-3-carbonitrile]
248 to 250 °C	CCc1ccc(Nc2c(C#N)cnc3cc(OC)c(OC)cc23)cc1 [Example 335, 4-(4-Ethylphenylamino)-6,7-dimethoxyquinoline-3-carbonitrile]
103 to 105 °C	COc1ccc(OC)c2c(Nc3cccc(N(C)C)c3)c(C#N)cnc12 [Example 242, 4-(3-Dimethylamino-phenylamino)-5,8-dimethoxy-quinoline-3-carbonitrile]
> 250 °C (dec.)	COc1ccc2ncc(C#N)c(Nc3ccc(C)c(O)c3)c2c1 [Example 284, 4-(3-Hydroxy-4-methyl-phenylamino)-6-methoxy-quinoline-3-carbonitrile]
139 to 141 °C	COc1cc2ncc(C#N)c(Nc3ccc(Cl)cc3F)c2cc1OC [Example 228, 4-(4-Chloro-2-fluoro-phenylamino)-6,7-dimethoxy-quinoline-3-carbonitrile]
245 to 247 °C	COc1cc2ncc(C#N)c(Nc3c(C)cccc3O)c2cc1OC [Example 246, 4-(2-Hydroxy-6-methyl-phenylamino)-6,7-dimethoxy-quinoline-3-carbonitrile]
> 250 °C	COc1cc2ncc(C#N)c(Nc3cc(Cl)ccc3O)c2cc1OC [Example 290, 4-(5-Chloro-2-hydroxy-phenylamino)-6,7-dimethoxy-quinoline-3-carbonitrile]
238 to 240.5 °C	COc1cc2ncc(C#N)c(Nc3ccccc3C(N)=O)c2cc1OC [Example 297, 2-(3-Cyano-6,7-dimethoxy-quinolin-4-ylamino)-benzamide]
166 to 168 °C	COc1cc2c(Nc3ccc(Cl)cc3F)c(C#N)cnc2c(OC)c1OC [Example 234, 4-(4-Chloro-2-fluoro-phenylamino)-6,7,8-trimethoxy-quinoline-3-carbonitrile]
112 to 115 °C	N#Cc1cnc2ccc(NC(=O)C#CCN3CCOCC3)cc2c1Nc1cccc(Br)c1 [Example 58, N-[4-[(3-Bromophenyl)amino]-3-cyano-6-quinolinyl]-4-morpholino-2-butynamide]
179 to 180 °C	COc1cc2c(Nc3ccccc3SC)c(C#N)cnc2cc1OCCCN1CCOCC1 [Example 314, 6-Methoxy-4-(2-methylsulfanyl-phenylamino)-7-(3-morpholin-4-yl-propoxy)-quinoline-3-carbonitrile]
228 to 230 °C	COc1ccc2ncc(C#N)c(Nc3cc(O)c(Cl)cc3F)c2c1 [Example 285, 4-(4-Chloro-2-fluoro-5-hydroxy-phenylamino)-6-methoxy-quinoline3-carbonitrile]

melting point	Compound
270 to 272 °C	N#Cc1cnc2cc(O)c(O)cc2c1Nc1ccc(Cl)cc1F [Example 373, 4-(4-Chloro-2-fluoro-phenylamino)-6,7-dihydroxy-quinoline-3-carbonitrile]
240 °C (dec.)	COc1ccc2c(Nc3cc(O)c(Cl)cc3F)c(C#N)cnc2c1 [Example 282, 4-(4-Chloro-2-fluoro-5-hydroxy-phenylamino)-7-methoxy-quinoline-3-carbonitrile]
200 °C (dec.)	COc1cc2c(Nc3ccc(C)c(O)c3)c(C#N)cnc2c(OC)c1OC [Example 233, 4-(3-Hydroxy-4-methyl-phenylamino)-6,7,8-trimethoxy-quinoline-3-carbonitrile]
130 °C (dec.)	CC(C)N(CC#CC(=O)Nc1ccc2ncc(C#N)c(Nc3cccc(Br)c3)c2c1)C(C)C [Example 192, N-[4-[(3-Bromophenyl)amino]-3-cyano-6-quinolinyl]-4-diisopropylamino-2-butynamide]
146 °C (dec.)	COc1cccc2c(Nc3ccc(Br)c(O)c3)c(C#N)cnc12 [Example 278, 4-(4-Bromo-3-hydroxy-phenylamino)-8-methoxy-quinoline-3-carbonitrile]
170 to 171 °C	COCC#CC(=O)Nc1ccc2ncc(C#N)c(Nc3ccc(F)c(Cl)c3)c2c1 [Example 194, N-[4-[-(3-Chloro-4-fluorophenyl)amino]-3-cyano-6-quinolinyl]-4-methoxy-2-butynamide]
255 to 257 °C	COc1cc2ncc(C#N)c(Nc3cccc(O)c3C)c2cc1OC [Example 245, 4-(3-Hydroxy-2-methyl-phenylamino)-6,7-dimethoxy-quinoline-3-carbonitrile]
> 250 °C	COc1cc2ncc(C#N)c(Nc3ccc(O)cc3C)c2cc1OC [Example 292, 4-(4-Hydroxy-2-methyl-phenylamino)-6,7-dimethoxy-quinoline-3-carbonitrile]
123 to 125 °C	COc1cc2ncc(C#N)c(Nc3cccc(CO)c3C)c2cc1OC [Example 333, 4-(3-Hydroxymethyl-2-methylphenylamino)-6,7-dimethoxyquinoline-3-carbonitrile]
115 to 118 °C	COc1cc2c(Nc3cccc(Br)c3)c(C#N)cnc2cc1OCCCN1CCOCC1 [Example 313, 4-(3-Bromo-phenylamino)-6-methoxy-7-(3-morpholin-4-yl-propoxy)-quinoline-3-carbonitrile]
> 250 °C	COc1cc2ncc(C#N)c(Nc3ccc(C(N)=O)cc3)c2cc1OC [Example 289, 4-(3-Cyano-6,7-dimethoxy-quinolin-4-ylamino)-benzamide]
> 250 °C	COc1cc2ncc(C#N)c(Nc3ccc(C)cc3O)c2cc1OC [Example 287, 4-(2-Hydroxy-4-methyl-phenylamino)-6,7-dimethoxy-quinoline-3-carbonitrile]
116 to 118 °C	COc1cc2ncc(C#N)c(Nc3ccc(C(F)(F)F)cc3)c2cc1OC [Example 376, 6,7-Dimethoxy-4-(4-trifluoromethyl-phenylamino)-quinoline-3-carbonitrile]
124 to 126 °C	CC(C)N(C)CC#CC(=O)Nc1ccc2ncc(C#N)c(Nc3cccc(Br)c3)c2c1 [Example 191, N-[4-[(3-Bromophenyl)amino]-3-cyano-6-quinolinyl]-4-(N-isopropyl-N-methylamino)-2-butynamide]
253 to 255 °C	COc1cc2ncc(C#N)c(Nc3cccc(C(N)=O)c3)c2cc1OC [Example 247, 3-(3-Cyano-6,7-dimethoxy-quinolin-4-ylamino)-benzamide]

System: min mouse
Assay: not given
Details: background statement on NSAID's; cited from earlier work

Compound	intestinal polyp formulation in min mice (NSAID's)
CCc1cccc2c3c([nH]c12)C(CC)(CC(=O)O)OCC3 (stereo not shown) [etodoloc]	can reduce (but not eradicate) intestinal polyp formulation
CC1=C(CC(=O)O)c2cc(F)ccc2/C1=C\c1ccc([S+](C)[O-])cc1 (stereo not shown) [sulindac]	can reduce (but not eradicate) intestinal polyp formulation
